From PubChem BioAssay (NCI)
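Where inhibition never reached the appropriate level, the endpoint shown equals the highest concentration tested. Otherwise, values were interpolated linearly from a five-concentration, 48-hour dose response in 96-well plates. Definition used: TGI = concentration required for complete inhibition of growth.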

Tests used:
Assay in all cases: NCI-60 cell line screen, 48 h
[1] = system: A549 NSCLC
[2] = system: ACHN renal
[3] = system: HL-60(TB) leukemia
[4] = system: IGROV1 ovarian
[5] = system: K-562 leukemia
[6] = system: NCI-H226 lung
[7] = system: NCI-H23 lung
[8] = system: NCI-H522 lung
[9] = system: PC-3 prostate
[10] = system: SF-539 CNS
[11] = system: SK-MEL-2 melanoma
[12] = system: SNB-75 CNS
[13] = system: SW-620 colon
[14] = system: TK-10 renal
[15] = system: UACC-62 melanoma
[16] = system: HOP-62 NSCLC
[17] = system: MDA-N
[18] = system: SK-MEL-28 melanoma
[19] = system: T-47D breast
[20] = system: HS 578T breast

Compound	TGI [1]	TGI [2]	TGI [3]	TGI [4]	TGI [5]	TGI [6]	TGI [7]	TGI [8]	TGI [9]	TGI [10]	TGI [11]	TGI [12]	TGI [13]	TGI [14]	TGI [15]	TGI [16]	TGI [17]	TGI [18]	TGI [19]	TGI [20]
Cc1cccc2c1Oc1ncccc1C2NC(=O)CN(C)C (centres undefined)	> 10 µM	> 10 µM	> 10 µM	> 10 µM	> 10 µM	> 10 µM	> 10 µM	> 10 µM	> 10 µM	> 10 µM	> 10 µM	> 10 µM	> 10 µM	> 10 µM	> 10 µM	–	–	–	–	–
O=CC12CCCN1CCC2	> 100 µM	> 100 µM	–	> 100 µM	> 100 µM	> 100 µM	> 100 µM	> 100 µM	> 100 µM	–	> 100 µM	–	> 100 µM	> 100 µM	> 100 µM	> 100 µM	> 100 µM	> 100 µM	> 100 µM	–
N#Cc1c2c(c(Nc3ccc(Cl)cc3)n3c1nc1ccccc13)CCCC2	> 100 µM	> 100 µM	> 100 µM	> 100 µM	> 100 µM	> 100 µM	> 100 µM	> 100 µM	> 100 µM	> 100 µM	> 100 µM	> 100 µM	> 100 µM	> 100 µM	> 100 µM	> 100 µM	–	> 100 µM	> 100 µM	> 87.4 µM
CC(=O)Oc1c(OC(C)C)cc(=O)n2ccsc12	> 100 µM	> 100 µM	58.7 µM	> 100 µM	> 100 µM	> 100 µM	> 100 µM	> 100 µM	> 100 µM	> 100 µM	> 100 µM	> 100 µM	> 100 µM	> 100 µM	> 100 µM	> 100 µM	> 100 µM	> 100 µM	–	> 100 µM
NS(=O)(=O)C1CCCCC1C(=O)NNC(=O)C(=O)Nc1nc(=S)[nH][nH]1 (centres undefined)	> 100 µM	> 100 µM	> 100 µM	> 100 µM	> 100 µM	> 100 µM	> 100 µM	> 100 µM	–	> 100 µM	> 100 µM	> 100 µM	> 100 µM	> 100 µM	> 100 µM	> 100 µM	–	> 100 µM	–	–
C(/Cc1ccc2c(c1)OCO2)=N\NC1=NCCCCN1	> 100 µM	> 100 µM	> 100 µM	> 100 µM	> 100 µM	> 100 µM	> 100 µM	> 100 µM	> 100 µM	> 100 µM	> 100 µM	> 100 µM	> 100 µM	> 100 µM	> 100 µM	> 100 µM	–	> 100 µM	> 100 µM	> 100 µM
CCCSC1=N/C(=C\c2ccco2)C(=O)N1	> 100 µM	> 100 µM	–	> 100 µM	–	> 100 µM	> 100 µM	> 100 µM	> 100 µM	> 100 µM	> 100 µM	> 100 µM	> 100 µM	> 100 µM	> 100 µM	> 100 µM	> 100 µM	> 100 µM	> 100 µM	> 100 µM
CCc1nc2cc(F)ccc2[nH]c1=O	> 100 µM	> 100 µM	> 100 µM	–	> 100 µM	> 100 µM	> 100 µM	–	> 100 µM	> 100 µM	> 100 µM	> 100 µM	> 100 µM	> 100 µM	> 100 µM	> 100 µM	> 100 µM	> 100 µM	–	> 100 µM
COC(=O)C1CCC(=S)N1C(C)=O (centres undefined)	> 100 µM	> 100 µM	–	> 100 µM	> 100 µM	–	> 100 µM	> 100 µM	> 100 µM	–	> 100 µM	> 100 µM	> 100 µM	> 100 µM	> 100 µM	> 100 µM	> 100 µM	> 100 µM	–	> 100 µM
COc1ccc(Sc2ccccc2[N+](=O)[O-])cc1	> 100 µM	–	20.8 µM	> 100 µM	> 100 µM	45.8 µM	> 100 µM	–	–	> 100 µM	> 100 µM	19.7 µM	> 100 µM	> 100 µM	> 100 µM	> 100 µM	–	46.4 µM	–	–
COC(=O)C1=C(C)C(=O)C2(CCCCCC2C(=O)OC)C1 (centres undefined)	> 100 µM	> 100 µM	> 100 µM	> 100 µM	> 100 µM	> 100 µM	> 100 µM	> 100 µM	–	> 100 µM	> 100 µM	> 100 µM	> 100 µM	> 100 µM	> 100 µM	> 100 µM	–	> 100 µM	–	–
CN(C)c1ccc(/C=C2\CCCCCC2=O)cc1	> 100 µM	> 100 µM	> 100 µM	> 100 µM	> 100 µM	–	–	–	> 100 µM	> 100 µM	> 100 µM	> 100 µM	> 100 µM	> 100 µM	> 100 µM	> 100 µM	> 100 µM	> 100 µM	> 100 µM	–
Nn1c(=S)[nH]nc(/C=C/c2c(O)ccc3ccccc23)c1=O	71.2 µM	51.7 µM	4.14 µM	5.56 µM	> 100 µM	–	11 µM	16.7 µM	> 100 µM	> 100 µM	> 100 µM	–	> 100 µM	–	26.2 µM	62.8 µM	> 100 µM	73.5 µM	31.9 µM	–
CSC(=NCCCN=C(NS(=O)(=O)c1ccc(Cl)cc1)SC)NS(=O)(=O)c1ccc(Cl)cc1	–	> 100 µM	47.1 µM	> 100 µM	> 100 µM	–	–	–	35.2 µM	> 100 µM	43.6 µM	> 100 µM	> 100 µM	> 100 µM	> 100 µM	> 100 µM	61.4 µM	> 100 µM	> 100 µM	–
CCOC(=O)N/N=C(/N)Cc1ccc(Cl)cc1	> 100 µM	> 100 µM	–	> 100 µM	> 100 µM	–	> 100 µM	> 100 µM	> 100 µM	> 100 µM	> 100 µM	> 100 µM	> 100 µM	> 100 µM	> 100 µM	> 100 µM	> 100 µM	> 100 µM	–	–
COc1ccc(-c2cc(=O)c3cc(OC)c(OC)cc3[nH]2)cc1OC	> 100 µM	> 100 µM	–	> 100 µM	> 100 µM	> 100 µM	> 100 µM	> 100 µM	> 100 µM	> 100 µM	–	> 100 µM	> 100 µM	> 100 µM	> 100 µM	> 100 µM	> 100 µM	> 100 µM	–	> 100 µM
COc1ccc(-c2cc(-c3ccc(Nc4ccnc5cc(C(F)(F)F)ccc45)cc3)nc(N)c2C#N)c2ccccc12	> 100 µM	> 100 µM	> 100 µM	–	–	–	> 100 µM	–	> 100 µM	> 100 µM	> 100 µM	> 100 µM	> 100 µM	> 100 µM	> 100 µM	> 100 µM	–	–	> 100 µM	> 100 µM
Nc1cc(O)c2cc(N=Nc3ccc(N=Nc4ccc(N=Nc5ccc6cc(S(=O)(=O)O)cc(S(=O)(=O)O)c6c5)c5ccccc45)c4cc(S(=O)(=O)O)ccc34)c(S(=O)(=O)O)cc2c1	> 100 µM	–	> 100 µM	> 100 µM	> 31.6 µM	> 93.3 µM	> 100 µM	> 100 µM	–	> 100 µM	> 100 µM	> 100 µM	> 100 µM	–	> 100 µM	> 100 µM	–	> 100 µM	–	–
Nc1nc(Nc2cc(F)c(Cl)c(F)c2)cc(=O)[nH]1	> 100 µM	> 100 µM	> 100 µM	> 100 µM	–	> 100 µM	> 100 µM	> 100 µM	> 100 µM	> 100 µM	> 100 µM	97.9 µM	> 100 µM	> 100 µM	> 100 µM	> 100 µM	–	> 100 µM	> 100 µM	66.5 µM
O=C(c1ccccc1)n1c2ccc(Br)cc2c2nc3ccccc3nc21	–	> 100 µM	> 100 µM	> 100 µM	> 100 µM	> 100 µM	> 100 µM	> 100 µM	> 100 µM	> 100 µM	> 100 µM	> 100 µM	> 100 µM	> 100 µM	> 100 µM	> 100 µM	> 100 µM	> 100 µM	–	–
CCCCN1/C(=N/Nc2n[nH]c(=O)c3ccccc23)SCC1c1ccc(Cl)cc1 (centres undefined)	> 100 µM	> 100 µM	> 100 µM	41.1 µM	> 100 µM	27.5 µM	14.7 µM	37.1 µM	> 100 µM	33.1 µM	56.4 µM	64 µM	53 µM	92.7 µM	20.7 µM	18.5 µM	–	47.1 µM	> 100 µM	56.2 µM
COc1ccc(NC(=S)Nc2cccc(C)n2)cc1	–	> 100 µM	> 100 µM	> 100 µM	> 100 µM	> 100 µM	> 100 µM	–	> 100 µM	> 100 µM	> 100 µM	> 100 µM	> 100 µM	> 100 µM	> 100 µM	64.3 µM	–	> 100 µM	> 100 µM	> 100 µM
Cc1ccc(C)c(C(=O)CC2OC(O)C(Cl)C2Cl)c1 (centres undefined)	> 100 µM	> 100 µM	95.7 µM	> 100 µM	> 100 µM	> 100 µM	> 100 µM	29.4 µM	–	53.2 µM	> 100 µM	> 100 µM	33.5 µM	> 100 µM	> 100 µM	> 100 µM	–	> 100 µM	–	–
Cn1c(=O)c2c(n(C)c1=O)n1c(=O)c3ccccc3nc1n2C	> 100 µM	> 100 µM	–	> 100 µM	> 100 µM	73.2 µM	> 100 µM	> 100 µM	> 100 µM	> 100 µM	> 100 µM	> 100 µM	> 100 µM	> 100 µM	> 100 µM	> 100 µM	–	> 100 µM	> 100 µM	> 100 µM
Cn1c(=O)c(C#N)c(O)c2cc3ccccc3nc21	> 100 µM	> 100 µM	> 100 µM	> 100 µM	> 100 µM	> 100 µM	> 100 µM	–	–	> 100 µM	> 100 µM	> 100 µM	> 100 µM	> 100 µM	–	–	–	> 100 µM	–	–
CCCCCCCCCCCC1=C(O)C(=O)C=C(O)C1=O	13.4 µM	–	12.6 µM	20.5 µM	75.9 µM	15.4 µM	29.7 µM	66.5 µM	–	23.3 µM	12.5 µM	17.7 µM	55.3 µM	–	10.5 µM	12.3 µM	–	37.5 µM	–	–
O=C(Nc1nc2ccc([N+](=O)[O-])cc2s1)c1cc([N+](=O)[O-])ccc1Cl	–	13.7 µM	–	–	–	7.24 µM	6.92 µM	4.39 µM	–	6.71 µM	–	9.61 µM	5.59 µM	32 µM	–	10.3 µM	5.04 µM	–	> 100 µM	–
Nc1nc2c(c(-c3ccc(F)cc3)n1)COC/C2=C\c1ccc(F)cc1	–	> 100 µM	> 100 µM	> 100 µM	> 100 µM	> 100 µM	> 100 µM	22.7 µM	> 100 µM	> 100 µM	> 100 µM	83.1 µM	> 100 µM	> 100 µM	> 100 µM	> 100 µM	> 100 µM	> 100 µM	–	> 100 µM
